# Results: patent US8592466B2, “Methods for treating conditions caused by higher-than-normal dopaminergic activity in basal ganglia” (Neuropill, Inc., priority 2008, dated 2013)
# Legend:
# serum prolactin = assay: Serum prolactin radioimmunoassay; type: in vivo, humans
# Method: Blood for prolactin level determinations were collected on day 0 at 6:00 A.M. before breakfast (7:00 A.M.) and also three times a day on days 15, 22 and 29 with first blood draw performed at 6:00 A.M. before the morning dose of RPR 102681 (6:05 A.M.) and the other two at 30 minutes after each i.v. infusion. Prolactin levels on days 15, 22, and 29 were compared between RPR 102681 and placebo cohorts to determine the extent to which prolactin levels are modified by the administration of RPR 102681 using repeated measures ANOVA. Changes in prolactin level induced by 40 mg cocaine infusion along with RPR 102681 (days 15, 22 and 29) were compared for each subject by RPR 102681 dose level using repeated measures ANOVA.
# Prolactin concentrations were determined using a commercially available radioimmunoassay (Coat-A-Count® Prolactin IRMA, Diagnostic Products Corporation, Los Angeles, Calif.). Calibrator and QCs (CONE, lots #019 and 020) were also supplied by the manufacturer. Fifty microliters of calibrators, QCs and study samples were added to prolactin polyclonal antibody-coated tubes. This was followed by 200 μL of ^125I-labeled prolactin monoclonal antibodies, followed by shaking for 2 hours. The tubes were decanted and drained; 2 mLs of buffered wash solution was added for 1-2 minutes; the tubes were again decanted and drained; this was followed by a second wash step. After thorough draining, the radioactivity in the tubes was determined from 1 minute counts using a Packard Cobra II gamma counter (Downers Grove, Ill.). In theory, the ^125I-labeled prolactin monoclonal antibodies bind only to prolactin bound to the antibody coated onto the tubes. The radioactivity retained in the tube increases as does the amount of prolactin in the samples. The software for the gamma counter generates a standard curve based on the log of the concentration and the log of the B/Bo for the calibrators. This curve is used to back-calculate the concentration of prolactin in the samples. […]
# [1] = cited from earlier work
# [2] = NIH study: treatment of cocaine abuse; details: humans
structure (smiles),measurement,setting,value
"CC(C(=O)O)c1cccc(NC(=O)NCC(=O)N2C(C(=O)OC(C)(C)C)CSC2c2ccccc2F)c1 [RPR 102681, (2S)-2-{3-[3-({[(2R,4R)-4-tert-Butoxycarbonyl-2-(2-fluorophenyl)]-3-thiazolidinyl}carbonylmethyl)ureido]phenyl}propionic acid]",post-cocaine prolactin value vs post-saline value,"serum prolactin; RPR 102681 group, day 29",significantly lower
same,"serum prolactin levels, RPR 102681 vs placebo subjects","serum prolactin; day 0 and pre-infusion days 15, 22, 29",no significant differences
same,"serum prolactin response to cocaine or saline infusion, RPR 102681 vs placebo","serum prolactin; infusion days 15, 22, 29",no significant difference
same,diarrhea,[1]; first clinical study,2 occurrences
same,euphoria,[1]; first clinical study,2 occurrences
same,headaches,[1]; first clinical study,3 occurrences
same,postural hypotension,[1]; first clinical study,6 occurrences
same,somnolence,[1]; first clinical study,3 occurrences
same,flatulence,[1]; second clinical study,4 occurrences
same,headache,[1]; second clinical study,1 occurrences
same,pharyngitis,[1]; second clinical study,4 occurrences
same,serious adverse events,[1]; two clinical studies in France and two NIH studies,no serious adverse events
same,efficacy in treating cocaine abuse,[2],ineffective
